{"source": "patent US5773459A", "about": "“Urea- and thiourea-type compounds” (Sugen, Inc., priority 1995, dated 1998)", "key": {"Insulin Receptor": {"target": "T1, Insulin Receptor (Homo sapiens, UniProt P06213)", "T1 construct": "host or cells: H25 (NIH3T3)", "T1 sequence (P06213 28-1382, species assumed)": "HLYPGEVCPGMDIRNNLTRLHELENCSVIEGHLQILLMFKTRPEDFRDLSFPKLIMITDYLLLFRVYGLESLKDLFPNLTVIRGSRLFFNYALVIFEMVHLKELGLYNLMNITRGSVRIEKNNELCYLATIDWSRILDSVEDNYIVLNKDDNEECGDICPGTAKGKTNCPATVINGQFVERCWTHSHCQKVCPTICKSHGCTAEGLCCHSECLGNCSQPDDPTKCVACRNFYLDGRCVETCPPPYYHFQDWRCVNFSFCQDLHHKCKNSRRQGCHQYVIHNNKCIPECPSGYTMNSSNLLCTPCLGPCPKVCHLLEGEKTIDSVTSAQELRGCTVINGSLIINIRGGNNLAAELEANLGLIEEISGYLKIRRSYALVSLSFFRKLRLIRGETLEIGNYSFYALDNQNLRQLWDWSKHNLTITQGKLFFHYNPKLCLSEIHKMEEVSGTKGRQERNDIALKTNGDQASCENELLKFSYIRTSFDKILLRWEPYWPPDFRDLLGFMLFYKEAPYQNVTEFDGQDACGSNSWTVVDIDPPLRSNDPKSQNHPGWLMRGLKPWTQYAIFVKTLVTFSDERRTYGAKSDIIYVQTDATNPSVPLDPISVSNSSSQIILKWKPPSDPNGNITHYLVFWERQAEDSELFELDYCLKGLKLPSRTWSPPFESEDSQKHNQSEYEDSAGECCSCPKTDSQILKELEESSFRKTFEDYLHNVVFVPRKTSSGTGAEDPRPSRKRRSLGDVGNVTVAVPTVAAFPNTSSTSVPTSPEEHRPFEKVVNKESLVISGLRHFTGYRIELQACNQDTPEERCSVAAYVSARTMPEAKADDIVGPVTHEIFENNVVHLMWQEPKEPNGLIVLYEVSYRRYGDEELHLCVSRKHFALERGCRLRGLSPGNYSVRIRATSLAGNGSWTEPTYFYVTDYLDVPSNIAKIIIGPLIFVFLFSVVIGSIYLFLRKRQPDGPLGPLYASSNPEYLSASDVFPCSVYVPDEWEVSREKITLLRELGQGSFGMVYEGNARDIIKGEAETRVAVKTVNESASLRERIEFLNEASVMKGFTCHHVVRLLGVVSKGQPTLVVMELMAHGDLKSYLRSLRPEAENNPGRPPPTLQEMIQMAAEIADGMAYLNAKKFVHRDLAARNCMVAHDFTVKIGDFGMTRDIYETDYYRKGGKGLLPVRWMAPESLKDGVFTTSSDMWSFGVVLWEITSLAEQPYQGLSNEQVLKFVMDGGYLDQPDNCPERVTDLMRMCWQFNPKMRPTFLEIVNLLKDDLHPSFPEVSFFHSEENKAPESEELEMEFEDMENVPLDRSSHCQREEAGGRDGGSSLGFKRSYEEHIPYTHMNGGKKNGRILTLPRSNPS", "assay": "Cellular Insulin Receptor ELISA", "assay_type": "cell-based", "protocol": "Cellular Insulin Receptor ELISA (Version I)\nThe following protocol describes the cell line, reagents and procedures used to measure phosphotyrosine level on Insulin Receptor, which indicates Insulin Receptor tyrosine kinase activity.\n(2). H25 cells are grown in an incubator with 5% CO2 at 37° C. The growth media is DMEM+10% FBS (heat inactivated)+2 mM L-Glutamine.\n(3). For ELISA plate coating, the monoclonal anti-IR antibody named BBE is used. Antibodies are purified by the Enzymology Lab, SUGEN, Inc.\n(2). […] Incubate for 1 day then replace medium to 0.01% serum medium (90/ul) and incubate in 5% CO2 and 37° C. overnight.\n(§1) 2. ELISA Plate Coating and Blocking\n(2). Remove the coating solution, and replace with 100 ul Blocking Buffer, and shake for 30 minutes. Remove the blocking buffer and wash the plate just before adding lysate.\n(1). The drugs are tested in serum-free condition.\n(2). Dilute drug stock (in 100% DMSO) 1:10 with DMEM in 96-well poly-propylene plate, and transfer 10 ul/well of this solution to the cells to achieve final drug dilution 1:100, and final DMSO concentration of 1.0%. Incubate the cells in 5% CO2 at 37° C. for 2 hours.\n(3). Prepare fresh cell lysis buffer (HNTG*) HNTG 2 ml EDTA 0.1 ml Na3VO4 0.1 ml Na4P2O7 0.1 ml H20 7.3 ml HNTG* 10 ml.\n(4). After drug incubation for two hours, transfer 10 ul/well of 1 μM Insulin in PBS to the cells (Final Conc=100 nM), and incubate at 5% CO2 at 37° C. for 10 minutes.\n(5). Remove media and add 100ul/well HNTG* and shake for 10 minutes. Look at cells under microscope to see if they are adequately lysed.\n(6). Use a 12-channel pipette to scrape the cells from the plate, and homogenize the lysate by repeat aspiration and dispense. Transfer all the lysate to the antibody coated ELISA plate [V.2.(2)], and shake for 1 hour.\n(7). Remove the lysate, wash the plate, transfer anti-pTyr (1:3,000 with TBST) 100 ul/well, and shake for 30 minutes.\n(8). Remove anti-pTyr, wash the plate, transfer detection antibody (1:3,000 with TBST) 100 ul/well, and shake for 30 minutes.\n(9). […]"}, "HER2": {"target": "T2, HER2 (Homo sapiens, UniProt P04626)", "T2 construct": "a human breast tumor cell line which expresses high levels of HER2 kinase; host or cells: BT-474 human breast tumor cells", "T2 sequence (P04626 23-1255)": "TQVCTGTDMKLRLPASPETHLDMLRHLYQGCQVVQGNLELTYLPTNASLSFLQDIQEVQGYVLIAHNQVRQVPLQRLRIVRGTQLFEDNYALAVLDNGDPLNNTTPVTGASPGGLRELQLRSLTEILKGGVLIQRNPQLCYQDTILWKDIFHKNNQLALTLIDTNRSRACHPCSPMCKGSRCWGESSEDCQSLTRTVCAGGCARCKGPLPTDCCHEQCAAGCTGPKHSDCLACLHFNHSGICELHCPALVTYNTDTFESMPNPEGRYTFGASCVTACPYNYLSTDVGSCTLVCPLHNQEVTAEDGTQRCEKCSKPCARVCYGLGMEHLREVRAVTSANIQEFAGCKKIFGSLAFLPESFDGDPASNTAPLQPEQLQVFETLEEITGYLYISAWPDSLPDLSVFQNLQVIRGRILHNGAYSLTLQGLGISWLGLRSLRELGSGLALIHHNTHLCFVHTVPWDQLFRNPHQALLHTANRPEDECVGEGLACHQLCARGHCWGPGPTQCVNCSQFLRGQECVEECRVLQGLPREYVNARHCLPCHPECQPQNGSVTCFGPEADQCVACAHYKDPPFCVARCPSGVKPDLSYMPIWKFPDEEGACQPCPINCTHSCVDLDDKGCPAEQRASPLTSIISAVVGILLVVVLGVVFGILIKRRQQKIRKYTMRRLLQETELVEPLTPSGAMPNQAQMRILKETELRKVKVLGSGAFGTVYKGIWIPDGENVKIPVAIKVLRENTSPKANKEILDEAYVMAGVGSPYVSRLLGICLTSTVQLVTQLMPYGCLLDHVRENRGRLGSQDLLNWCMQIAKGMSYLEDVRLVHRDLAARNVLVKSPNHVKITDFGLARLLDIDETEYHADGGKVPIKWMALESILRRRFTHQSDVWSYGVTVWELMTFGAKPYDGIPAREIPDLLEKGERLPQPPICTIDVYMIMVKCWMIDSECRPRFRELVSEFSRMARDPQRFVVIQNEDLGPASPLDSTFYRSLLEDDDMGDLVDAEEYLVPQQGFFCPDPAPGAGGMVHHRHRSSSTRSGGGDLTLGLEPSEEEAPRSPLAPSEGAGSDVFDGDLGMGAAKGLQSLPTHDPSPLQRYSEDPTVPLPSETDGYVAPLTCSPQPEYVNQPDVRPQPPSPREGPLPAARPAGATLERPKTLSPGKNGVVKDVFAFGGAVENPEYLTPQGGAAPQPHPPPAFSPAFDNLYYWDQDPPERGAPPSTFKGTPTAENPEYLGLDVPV", "assay": "HER2-ELISA, HER2-BT474 assay measuring whole cell HER2 activity", "assay_type": "cell-based", "protocol": "Growth assays were carried out using human mammary epithelial SKBR3 (ATCC HTB30) cells (SKBR3 cells over-express HER2), SKOV3 (ATCC HTB77) human ovarian cancer cell line (SKOV3 cells also over-express HER2), A431 cells (A431 cells over-express EGFR) MCF7 human breast carcinoma cells, MCF7 cells overexpressing the HER2 kinase (MCF7-HER2), NIH3T3 cells, and NIH3T3 cells overexpressing the HER2 kinase (3T3-HER2.\nHER2-BT474 assays measuring whole cell HER2 activity was carried out as described below:\n2. […] The growth media is RPMI+10% FBS+GMS-G (Gibco supplement)+Glutamine.\n3. A monoclonal anti-HER2 antibody is used in ELISA.\nIncubate the cells in 5% CO2 at 37° C. overnight.\nas §1\nThe antibody coated plates can be used up to 2 weeks, when stored at 4° C.\n(b) On the day of use, remove the coating solution, replace with 200 μl of Blocking Buffer, shake the plate, and then remove the blocking buffer and wash the plate just before adding lysate.\n(a) […] the drugs in serum-free condition. Before adding drugs, the old media\n(b) Dilute drug stock (in 100% DMSO) 1:10 with RPMI, and transfer 10 μl/well of this solution to the cells to achieve a final drug DMSO concentration at 1%. Incubate the cells in 5% CO2 at 37° C.\n(c) Prepare fresh cell lysis buffer (HNTG*)\n(d) After drug preincubation for two hours remove all the solution from the plate, transfer HNTG* 100 μl/well to the cells, and shake for 10 minutes.\n(e) Use a 12-channel pipette to scrape the cells from the plate, and homogenize the lysate by repeat aspiration and dispensing. Transfer all the lysate to the ELISA plate and shake for 1 hour.\n(f) Remove the lysate, wash the plate, add anti-pTyr (1:3,000 with TBST) 100 μl/well, and shake for 30 minutes.\n(g) Remove anti-pTyr, wash the plate, add goat anti-rabbit IgG conjugated antibody (1:5,000 with TBST) 100 μl/well, and shake for 30 minutes.\n(h) Remove anti-rabbit IgG antibody, wash the plate, and add fresh ABTS/H2 O2 (1.2 μl 30% H2 O2 in 10 ml ABTS) 100 μl/well to the plate to start color development, which usually takes 20 minutes."}, "[1]": {"conditions": "H25 cells (NIH3T3 overexpressing Insulin Receptor), insulin stimulated, read-out: ELISA DATA: IR"}, "[2]": {"conditions": "BT474 cells, read-out: ELISA DATA: HER2 - (BT474)"}}, "note": "Read-outs that look alike come from different tables or passages of the source.", "data": [{"molecule": "CC(C)S(=O)(=O)c1csc(NC(=O)Nc2ccc(C(C)(C)C)cc2)c1Cl", "note": "[Example Z1, N-[3-Chloro-4-(isopropylsulfonyl)thien-2-yl]-N'-(4-t-butylphenyl)urea]", "values": [{"measurement": "IC50", "setting": "Insulin Receptor; [1]", "result": "> 100", "unit": "µM"}, {"measurement": "IC50", "setting": "HER2; [2]", "result": 11.8, "unit": "µM"}]}, {"molecule": "N#Cc1ccc(NC(=S)Nc2ccc(S(=O)(=O)N3CCCCC3)cc2)cc1", "note": "[Example Z4, N-(4-Cyanophenyl)-N'-[4-[(piperid-1-yl)sulfonyl]phenyl]thiourea]", "values": [{"measurement": "IC50", "setting": "HER2; [2]", "result": 9.3, "unit": "µM"}]}, {"molecule": "CC(C)S(=O)(=O)c1csc(NC(=O)Nc2cc(C(F)(F)F)cc(C(F)(F)F)c2)c1Cl", "note": "[Example Z2, N-[3-Chloro-4-(isopropylsulfonyl)thien-2-yl]-N'-(3,5-di-trifluoromethylphenyl)urea]", "values": [{"measurement": "IC50", "setting": "Insulin Receptor; [1]", "result": "> 100", "unit": "µM"}, {"measurement": "IC50", "setting": "HER2; [2]", "result": 3.2, "unit": "µM"}]}, {"molecule": "O=C(Nc1ccc(SC(F)(F)F)cc1)Nc1ccc(Oc2ccc(Cl)cc2Cl)nc1", "note": "[Example Z3]", "values": [{"measurement": "IC50", "setting": "Insulin Receptor", "result": "> 100", "unit": "µM"}, {"measurement": "IC50", "setting": "HER2", "result": 9.9, "unit": "µM"}]}]}
